Experimental data taken from patent publication US10953012B2, “Heterocyclic compounds for the inhibition of pask” (BioEnergenix LLC, priority 2011, dated 2021).
pIC50: −log10 of the molar value.

Tests used:
[1] = biological target: hPASK (kinase domain) (Homo sapiens (Human), UniProt Q96RG2); assay: PAS Kinase Luminescence Assay (Kinase-Glo), kinase domain; type: biochemical
Procedure: PAS Kinase Luminescence Assay
One assay for purified hPASK activity utilizes the Kinase-Glo Luminescent Kinase Assay (Promega), which quantifies the amount of ATP remaining in solution following kinase reaction. The assay is carried out in a 96-well plate format and is performed by adding a volume of Kinase-Glo Reagent (Promega, catalog #V3771) equal to the volume of solution in the well of a completed kinase reaction. Kinase-Glo reagent contains Luciferase and its substrate. After addition to a kinase reaction it allows to measure luminescence. The amount of ATP left in solution at the time of Kinase-Glo Plus addition is directly proportional to the luminescence that is measured in each well, and inversely correlated with kinase activity.
Purified hPASK from insect cells (0.02 μg) is added to a 50 μL reaction mix containing 40 mM HEPES (pH 7.0), 100 mM KCl, 5 mM MgCl2, 1 mM DTT and 1 μg of MBP protein. Inhibitory compounds are then added and the mixture is incubated for 10 min at 25° C. before adding 5 μL of ATP (at desired concentration). The reaction is allowed to proceed at 25° C. for 1 hour before adding 50 μL of Kinase-Glo reagent. The luminescence is measured as soon as 10 minutes after Kinase-Glo reagent is added.
Results are shown below in Table 1, where NT means not tested.

[2] = biological target: PASK (UniProt #Q96RG2; residues 879-1323) (Homo sapiens (Human), UniProt Q96RG2); assay: PASK ATP Radiochemical Assay; type: biochemical; settings: 33P-ATP radiochemical assay; read-out: IC50 Kinase Domain
Outline: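 Radiometric kinase assay: GST-tagged PASK (5 nM final) from insect cells with Myelin Basic Protein (20 μM) in HEPES pH 7.5 buffer, 1% DMSO; reaction started with ^33P-ATP, 120 min at room temperature. Substrate phosphorylation captured on P81 paper and read by scintillation counting.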

[3] = biological target: CK2a2 (Homo sapiens (Human), UniProt P19784); assay: Biochemical Assay for CK2 Activity; settings: 33P-ATP radiochemical assay; read-out: IC50 CK2 a2
Outline: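 GST-tagged full-length human CK2a2 from insect cells (1.2 nM) with 20 μM RRRDDDSDDD peptide, in pH 7.5 HEPES buffer with MgCl2, DTT and 1% DMSO. Reactions started with ³³P-ATP were run for 120 min at room temperature. Substrate phosphorylation was measured by P81 phosphocellulose filter binding and scintillation counting.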

[4] = biological target: PASK (Homo sapiens (Human), UniProt Q96RG2); assay: PAS Kinase FRET Assay; type: biochemical; settings: TR-FRET assay; read-out: IC50 Kinase Domain
Outline: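 TR-FRET read-out (665/615 nm) of ULight-peptide phosphorylation by PASK, detected with Eu-labelled anti-phospho antibody. Compound, kinase and substrate/ATP reacted 2 h at 25 °C in the dark in 50 mM HEPES, 10 mM MgCl2, 1 mM EGTA, 0.01% Tween-20, 2 mM DTT. Eleven-point dilution series made at 4× final.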

Chain of CK2a2 (P19784 whole entry): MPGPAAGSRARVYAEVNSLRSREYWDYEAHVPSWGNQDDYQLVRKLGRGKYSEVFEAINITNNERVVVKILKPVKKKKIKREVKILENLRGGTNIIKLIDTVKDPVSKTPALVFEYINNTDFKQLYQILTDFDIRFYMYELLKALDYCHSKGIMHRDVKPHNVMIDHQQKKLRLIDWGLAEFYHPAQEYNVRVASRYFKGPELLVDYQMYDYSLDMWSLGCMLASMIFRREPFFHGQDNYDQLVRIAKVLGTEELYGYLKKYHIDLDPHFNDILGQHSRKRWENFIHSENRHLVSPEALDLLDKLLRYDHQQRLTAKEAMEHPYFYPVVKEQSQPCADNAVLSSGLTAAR
Chain of PASK (UniProt #Q96RG2; residues 879-1323) (Homo sapiens (Human), UniProt Q96RG2) (Q96RG2 879-1323): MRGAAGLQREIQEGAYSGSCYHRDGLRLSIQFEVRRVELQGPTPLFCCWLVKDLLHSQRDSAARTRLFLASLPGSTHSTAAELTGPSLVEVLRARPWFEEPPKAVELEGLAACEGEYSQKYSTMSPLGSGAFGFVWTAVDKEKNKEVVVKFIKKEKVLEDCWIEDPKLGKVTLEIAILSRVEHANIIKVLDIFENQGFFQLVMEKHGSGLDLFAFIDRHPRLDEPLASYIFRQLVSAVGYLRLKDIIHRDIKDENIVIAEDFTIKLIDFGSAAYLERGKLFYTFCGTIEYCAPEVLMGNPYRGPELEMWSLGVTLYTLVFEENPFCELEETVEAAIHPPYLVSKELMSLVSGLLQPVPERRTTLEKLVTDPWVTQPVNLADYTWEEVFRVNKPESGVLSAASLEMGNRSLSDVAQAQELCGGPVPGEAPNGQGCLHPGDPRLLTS
Chain of PASK (Homo sapiens (Human), UniProt Q96RG2) (Q96RG2 999-1251): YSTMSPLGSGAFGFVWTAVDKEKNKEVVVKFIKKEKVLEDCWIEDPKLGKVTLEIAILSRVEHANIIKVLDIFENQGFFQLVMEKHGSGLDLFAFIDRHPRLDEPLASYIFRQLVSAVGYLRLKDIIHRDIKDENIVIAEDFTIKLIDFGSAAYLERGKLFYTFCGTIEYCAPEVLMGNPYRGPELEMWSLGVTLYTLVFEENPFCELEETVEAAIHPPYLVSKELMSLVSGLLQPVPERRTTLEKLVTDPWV
Chain of hPASK (kinase domain) (Q96RG2 999-1251): as above

With `Cc1cc(=O)n2nc(-c3cccc(Br)c3)cc2[nH]1` [Example 4, 2-(3-Bromo-phenyl)-5-methyl-4H-pyrazolo[1,5-a]pyrimidin-7-one] as the compound, how does the pIC50 [1] read?
The pIC50 was ≥ 5.00.

With `COc1ccc(-c2c(C)nn3c(=O)cc(-c4ccccc4)[nH]c23)cc1` [Example 20, 3-(4-Methoxy-phenyl)-2-methyl-5-phenyl-4H-pyrazolo[1,5-a]pyrimidin-7-one] as the compound, how does the pIC50 [1] read?
The pIC50 was ≤ 5.00.

How did the pIC50 [1] turn out when `Cc1nn2c(=O)cc(-c3ccc4c(c3)OCCO4)[nH]c2c1-c1ccccc1` [Example 41, 5-(2,3-Dihydrobenzo[b][1,4]dioxin-6-yl)-2-methyl-3-phenylpyrazolo[1,5-a]pyrimidin-7(4H)-one] was run?
The pIC50 was ≥ 5.00.

How did the pIC50 [1] turn out when `O=c1cc(-c2ccc3c(c2)OCO3)[nH]c2c(-c3ccccc3)cnn12` [Example 42, 5-(Benzo[d][1,3]dioxol-5-yl)-3-phenylpyrazolo[1,5-a]pyrimidin-7(4H)-one] was run?
Its pIC50 is ≥ 5.00.

`O=c1cc(-c2ccc3c(c2)OCO3)[nH]c2c(-c3cccnc3)cnn12` [Example 46, 5-(Benzo[d][1,3]dioxol-5-yl)-3-(pyridin-3-yl)pyrazolo[1,5-a]pyrimidin-7(4H)-one] was tested. Which pIC50 [1] did it give?
The pIC50 was ≥ 5.00.

With `CCCNC(=O)c1c(N)nn2c(=O)cc(-c3ccc4c(cnn4C)c3)[nH]c12` [Example 197, 2-Amino-5-(1-methyl-1H-indazol-5-yl)-7-oxo-N-propyl-4,7-dihydropyrazolo[1,5-a]pyrimidine-3-carboxamide] as the compound, how does the pIC50 [2] read?
The pIC50 was ≥ 5.00.

And the pIC50 [3]?
Its pIC50 is ≥ 5.00.

What about the pIC50 [4] of the same compound?
Its pIC50 is ≥ 5.00.

How did the pIC50 [2] turn out when `CCCNC(=O)c1c(N)nn2c(=O)cc(-c3ccc4[nH]ncc4c3)[nH]c12` [Example 198, 2-Amino-5-(1H-indazol-5-yl)-7-oxo-N-propyl-4,7-dihydropyrazolo[1,5-a]pyrimidine-3-carboxamide] was run?
The pIC50 was ≥ 5.00.

What about the pIC50 [3] of the same compound?
Its pIC50 is ≥ 5.00.

What about the pIC50 [4] of the same compound?
Its pIC50 is ≥ 5.00.

What does the source list for `Nc1nn2c(=O)cc(-c3ccc4[nH]nnc4c3)[nH]c2c1-c1ccccc1` [Example 199, 2-Amino-5-(1H-benzo[d][1,2,3]triazol-5-yl)-3-phenylpyrazolo[1,5-a]pyrimidin-7(4H)-one]?
pIC50 [2]: ≥ 5.00; pIC50 [3]: ≥ 5.00; pIC50 [4]: ≥ 5.00

How did the pIC50 [2] turn out when `CCc1nn2c(=O)cc(-c3ccc4[nH]nnc4c3)[nH]c2c1-c1ccccn1` [Example 201, 5-(1H-benzo[d][1,2,3]triazol-5-yl)-2-ethyl-3-(pyridin-2-yl)pyrazolo[1,5-a]pyrimidin-7(4H)-one] was run?
The pIC50 was ≥ 5.00.

And the pIC50 [3]?
The pIC50 was ≥ 5.00.

What about the pIC50 [4] of the same compound?
Its pIC50 is ≥ 5.00.

`CC(=O)Nc1nn2c(=O)cc(-c3ccc4c(cnn4C)c3)[nH]c2c1-c1ccccn1` [Example 205, N-(5-(1-Methyl-1H-indazol-5-yl)-7-oxo-3-(pyridin-2-yl)-4,7-dihydropyrazolo[1,5-a]pyrimidin-2-yl)acetamide] was tested. Which pIC50 [2] did it give?
The pIC50 was ≥ 5.00.

What about the pIC50 [3] of the same compound?
Its pIC50 is ≥ 5.00.

What about the pIC50 [4] of the same compound?
Its pIC50 is ≥ 5.00.

`Cc1nn2c(=O)cc(-c3ccc4c(c3)OCO4)[nH]c2c1Cc1ccccn1` [Example 210, 5-(Benzo[d][1,3]dioxol-5-yl)-2-methyl-3-(pyridin-2-ylmethyl)pyrazolo[1,5-a]pyrimidin-7(4H)-one] was tested. Which pIC50 [2] did it give?
Its pIC50 is ≥ 5.00.

And the pIC50 [3]?
Its pIC50 is ≥ 5.00.

And the pIC50 [4]?
Its pIC50 is ≥ 5.00.

What does the source list for `O=c1cc(-c2ccc3[nH]nnc3c2)[nH]c2c(-c3cccnc3)cnn12` [Example 213, 5-(1H-Benzo[d][1,2,3]triazol-5-yl)-3-(pyridin-3-yl)pyrazolo[1,5-a]pyrimidin-7(4H)-one]?
pIC50 [2]: ≥ 5.00; pIC50 [3]: ≥ 5.00; pIC50 [4]: ≥ 5.00

With `CCCNC(=O)c1cnn2c(=O)cc(-c3ccc4[nH]nnc4c3)[nH]c12` [Example 214, 5-(1H-Benzo[d][1,2,3]triazol-5-yl)-7-oxo-N-propyl-4,7-dihydropyrazolo[1,5-a]pyrimidine-3-carboxamide] as the compound, how does the pIC50 [2] read?
Its pIC50 is ≥ 5.00.

And the pIC50 [3]?
The pIC50 was ≥ 5.00.

And the pIC50 [4]?
The pIC50 was ≥ 5.00.

`Nc1nn2c(=O)cc(-c3ccc4[nH]nnc4c3)[nH]c2c1-c1ccc(Cl)cc1` [Example 217, 2-Amino-5-(1H-benzo[d][1,2,3]triazol-5-yl)-3-(4-chlorophenyl)pyrazolo[1,5-a]pyrimidin-7(4H)-one] was tested. Which pIC50 [2] did it give?
The pIC50 was ≥ 5.00.

And the pIC50 [3]?
Its pIC50 is ≥ 5.00.

What about the pIC50 [4] of the same compound?
Its pIC50 is ≥ 5.00.

Which results are given for `O=c1cc(-c2ccc3[nH]nnc3c2)[nH]c2c(-c3ccc(Cl)cc3)cnn12` [Example 218, 5-(1H-Benzo[d][1,2,3]triazol-5-yl)-3-(4-chlorophenyl)pyrazolo[1,5-a]pyrimidin-7(4H)-one]?
pIC50 [2]: ≥ 5.00; pIC50 [3]: ≥ 5.00; pIC50 [4]: ≥ 5.00

What does the source list for `CCCNC(=O)c1c(N)nn2c(=O)cc(-c3ccc4[nH]nnc4c3)[nH]c12` [Example 223, 2-Amino-5-(1H-benzo[d][1,2,3]triazol-5-yl)-7-oxo-N-propyl-4,7-dihydropyrazolo[1,5-a]pyrimidine-3-carboxamide]?
pIC50 [2]: ≥ 5.00; pIC50 [3]: ≥ 5.00; pIC50 [4]: ≥ 5.00

`CCCNC(=O)c1c(N)nn2c(=O)cc(-c3ccc4[nH]nc(C)c4c3)[nH]c12` [Example 224, 2-Amino-5-(3-methyl-1H-indazol-5-yl)-7-oxo-N-propyl-4,7-dihydropyrazolo[1,5-a]pyrimidine-3-carboxamide] was tested. Which pIC50 [2] did it give?
The pIC50 was ≥ 5.00.

What about the pIC50 [3] of the same compound?
The pIC50 was ≥ 5.00.

And the pIC50 [4]?
Its pIC50 is ≥ 5.00.

With `CCCNC(=O)c1c(N)nn2c(=O)cc(-c3ccc(Cl)cc3)[nH]c12` [Example 225, 2-Amino-5-(4-chlorophenyl)-7-oxo-N-propyl-4,7-dihydropyrazolo[1,5-a]pyrimidine-3-carboxamide] as the compound, how does the pIC50 [2] read?
Its pIC50 is ≥ 5.00.

What about the pIC50 [3] of the same compound?
Its pIC50 is ≥ 5.00.

What about the pIC50 [4] of the same compound?
The pIC50 was ≥ 5.00.

How did the pIC50 [2] turn out when `CCCNC(=O)c1c(O)nn2c(=O)cc(-c3ccc4c(c3)OCO4)[nH]c12` [Example 227, 5-(Benzo[d][1,3]dioxol-5-yl)-2-hydroxy-7-oxo-N-propyl-4,7-dihydropyrazolo[1,5-a]pyrimidine-3-carboxamide] was run?
The pIC50 was ≥ 5.00.

And the pIC50 [3]?
Its pIC50 is ≥ 5.00.

What about the pIC50 [4] of the same compound?
The pIC50 was ≥ 5.00.

With `COc1c(-c2cc(=O)n3nc(N)c(-c4ccccn4)c3[nH]2)ccc2c1OCO2` [Example 234, 2-Amino-5-(4-methoxybenzo[d][1,3]dioxol-5-yl)-3-(pyridin-2-yl)pyrazolo[1,5-a]pyrimidin-7(4H)-one] as the compound, how does the pIC50 [2] read?
The pIC50 was ≥ 5.00.

And the pIC50 [3]?
Its pIC50 is ≥ 5.00.

What about the pIC50 [4] of the same compound?
The pIC50 was ≥ 5.00.

How did the pIC50 [2] turn out when `COc1c(-c2cc(=O)n3nc(O)c(-c4ccccn4)c3[nH]2)ccc2c1OCO2` [Example 235, 2-Hydroxy-5-(4-methoxybenzo[d][1,3]dioxol-5-yl)-3-(pyridin-2-yl)pyrazolo[1,5-a]pyrimidin-7(4H)-one] was run?
The pIC50 was ≥ 5.00.

What about the pIC50 [3] of the same compound?
Its pIC50 is ≥ 5.00.

What about the pIC50 [4] of the same compound?
Its pIC50 is ≥ 5.00.

Which results are given for `COc1c(-c2cc(=O)n3nc(C)c(-c4ccccn4)c3[nH]2)ccc2c1OCO2` [Example 237, 5-(4-Methoxybenzo[d][1,3]dioxol-5-yl)-2-methyl-3-(pyridin-2-yl)pyrazolo[1,5-a]pyrimidin-7(4H)-one]?
pIC50 [2]: ≥ 5.00; pIC50 [3]: ≥ 5.00; pIC50 [4]: ≥ 5.00

`COc1cc2[nH]nnc2cc1-c1cc(=O)n2nc(N)c(-c3ccccn3)c2[nH]1` [Example 243, 2-Amino-5-(6-methoxy-1H-benzo[d][1,2,3]triazol-5-yl)-3-(pyridin-2-yl)pyrazolo[1,5-a]pyrimidin-7(4H)-one] was tested. Which pIC50 [2] did it give?
The pIC50 was ≥ 5.00.

What about the pIC50 [3] of the same compound?
The pIC50 was ≤ 5.00.

And the pIC50 [4]?
Its pIC50 is ≥ 5.00.

Which results are given for `COc1c(-c2cc(=O)n3ncc(-c4ccccn4)c3[nH]2)ccc2[nH]nnc12` [Example 245, 5-(4-Methoxy-1H-benzo[d][1,2,3]triazol-5-yl)-3-(pyridin-2-yl)pyrazolo[1,5-a]pyrimidin-7(4H)-one]?
pIC50 [2]: ≥ 5.00; pIC50 [3]: ≥ 5.00; pIC50 [4]: ≥ 5.00

What does the source list for `O=c1cc(-c2cc3nn[nH]c3cc2F)[nH]c2c(-c3ccccn3)cnn12` [Example 249, 5-(6-Fluoro-1H-benzo[d][1,2,3]triazol-5-yl)-3-(pyridin-2-yl)pyrazolo[1,5-a]pyrimidin-7(4H)-one]?
pIC50 [2]: ≥ 5.00; pIC50 [3]: ≥ 5.00; pIC50 [4]: ≥ 5.00

`O=c1cc(-c2ccc(-c3ncco3)cc2)[nH]c2c(-c3ccccn3)cnn12` [Example 254, 5-(4-(Oxazol-2-yl)phenyl)-3-(pyridin-2-yl)pyrazolo[1,5-a]pyrimidin-7(4H)-one] was tested. Which pIC50 [2] did it give?
The pIC50 was ≥ 5.00.

And the pIC50 [3]?
Its pIC50 is ≤ 5.00.

What about the pIC50 [4] of the same compound?
The pIC50 was ≥ 5.00.

With `N#Cc1ccc(-c2cc(=O)n3ncc(-c4ccccn4)c3[nH]2)cc1` [Example 256, 4-(7-Oxo-3-(pyridin-2-yl)-4,7-dihydropyrazolo[1,5-a]pyrimidin-5-yl)benzonitrile] as the compound, how does the pIC50 [2] read?
The pIC50 was ≥ 5.00.

What about the pIC50 [3] of the same compound?
The pIC50 was ≤ 5.00.

And the pIC50 [4]?
The pIC50 was ≥ 5.00.
